Values of other authors, collected in US20040131981A1, “Color developing solution of silver halide color photographic photosensitive material and manufacturing method of color developing solution” (priority 2002, published 2004).
Values joined by “and” are separate entries in the source; they are usually repeats but may differ in a detail not shown here. Equal values may be shown once. Read-outs that look alike come from different tables or passages of the source.

Conditions: for Pka: pH buffering agent of alkali part solution; for pKa: pH buffering agents with pKa 5 to 9 for fixing and bleaching-fixing solution; for pka: PH buffering agent of alkali part solutions B1-B34, Table 3

Row | Pka (Compound II) | Pka (Compound I) | Compound | further results
1 | 9.92 and 9.20 | – | NCC(CN)CN [II-57, 1,3-diamino-2-aminomethylpropane] | pKa: 6.44
2 | 10.29 | – | CNCCNC [II-40] | –
3 | 9.92 and 9.20 | – | NCCNCCNCCN [II-56, triethylenetetramine] | pKa: 6.67
4 | 10.02 | – | CCN(CC)CCN [II-39] | –
5 | 10.56 | – | CCNCCN [II-34, N-ethylethylenediamine] | pKa: 7.63
6 | 9.97 | – | CC(N)C(C)N (stereo not drawn) [II-46, NH2—CH(CH3)—CH(CH3)—NH2] | –
7 | 9.89(trans) | – | NC1CCCCC1N (stereo not drawn) [II-51] | –
8 | 10.12 | – | NCCNCCO [II-37, N-(2-hydroxyethyl)ethylenediamine] | pKa: 7.21
9 | 10.00 | – | CN(C)CCN [II-38] | –
10 | 10.82 and 9.61 | – | NCCCCN [II-48, H2N—C4H8—NH2] | –
11 | 10.48 | – | NC1CCCCCC1N (stereo not drawn) [II-52] | –
12 | 10.15 | – | O=C(O)CN(CCN(CC(=O)O)C1CCCCC1)CC(=O)O [II-29] | –
13 | 10.96 and 10.02 | – | NCCCCCN [II-49, H2N—C5H10—NH2] | –
14 | 10.62 | – | NCCCN [II-47, H2N—C3H6—NH2] | –
15 | 9.99(cis) | – | NC1CCCCC1N (stereo not drawn) [II-50] | –
16 | 9.84 | – | O=C(O)CN(CCN(CC(=O)O)c1ccccc1)CC(=O)O [II-31] | –
17 | 10.38 | – | O=C(O)CN(CCN(CC(=O)O)C1CCCCC1O)CC(=O)O (stereo not drawn) [II-30] | –
18 | 11.05 | – | NCCN(CC(=O)O)CC(=O)O [II-25] | –
19 | 9.94 and 9.13 | – | NCC(CN)CN [II-54] | –
20 | 9.58 | – | O=C(O)CCNCCNCCC(=O)O [II-27, HOOCH4C2—NH—C2N4—NH—C2H4COOH] | –
21 | 9.57 | – | O=C(O)CNCCNCC(=O)O [II-26, HOOCH2C—NH—C2H4—NH—CH2COOH] | –

Continued, compound first:

Row | Compound | Pka (Compound II) | Pka (Compound I) | further results
22 | CCN(CC)CCN [N,N-diethylethylenediamine] | – | – | pKa: 7.07
23 | CCCCC(N)C(=O)O (stereo not drawn) [Compound I-7] | – | 9.96 | –
24 | NC1(C(=O)O)CCCCC1 [Compound I-30] | – | 10.13 | –
25 | COCCN [III-16, CH3—O—C2H4—NH2] | – | – | Pka (Compound III): 9.61
26 | OCCNCCNCCO [N,N′-di(2-hydroxylethyl)ethylenediamine] | – | – | pKa: 7.18
27 | NCC(N)C(=O)O (stereo not drawn) [Compound I-17] | – | 9.50 | –
28 | O=C(O)CN(CC(=O)O)CP(=O)(O)O [III-8] | – | – | Pka (Compound III): 10.76
29 | CN(CC(=O)O)CC(=O)O [III-3] | – | – | Pka (Compound III): 10.60
30 | NC1(C(=O)O)CCCCCC1 [Compound I-31] | – | 10.46 | –
31 | CSCCC(N)C(=O)O (stereo not drawn) [Compound I-14] | – | 9.13 | –
32 | CC(C)(C)CCN(CC(=O)O)CC(=O)O [III-4] | – | – | Pka (Compound III): 10.24
33 | meso-2,3-diaminopropane | – | – | pKa: 6.92
34 | CC1CCNC1C(=O)O (stereo not drawn) [Compound I-26] | – | 10.68 | –
35 | NCCCCC(N)C(=O)O (stereo not drawn) [Compound I-19] | – | 10.72 and 9.18 | –
36 | CCNCC(=O)O [Compound I-21, H5C2—NH—CH2—COOH] | – | 10.10 | –
37 | O=C(O)CNCC(=O)O [III-1] | – | – | Pka (Compound III): 9.12; pka: 9.12
38 | NC(CC(=O)O)C(=O)O (stereo not drawn) [Compound I-15] | – | 9.62 | pka: 9.62
39 | NCCC(=O)O [Compound I-4, H2N—C2H4—COOH] | – | 10.26 | pka: 10.26
40 | CN(C)CC(=O)O [Compound I-24] | – | 9.80 | –
41 | CC1C(O)CNC1C(=O)O (stereo not drawn) [Compound I-27] | – | 9.58 | –
42 | NC(CO)C(=O)O (stereo not drawn) [Compound I-11] | – | 9.12 | –
43 | NC(Cc1c[nH]c2ccccc12)C(=O)O (stereo not drawn) [Compound I-28] | – | 9.55 | –
44 | CNCC(=O)O [Compound I-2, H3C—NH—CH2—COOH] | – | 10.01 | –
45 | N=C(N)NCCCC(N)C(=O)O (stereo not drawn) [Compound I-20] | – | 9.08 | pka: 9.08

Row | Compound | Pka (Compound II) | Pka (Compound I) | further results
46 | O[Si](O)(O)O [H2SiO2(OH)2, reference compound] | – | – | pka: 13.1
47 | O=C(O)CCNCCC(=O)O [III-2] | – | – | Pka (Compound III): 10.31
48 | CNCCNC [N,N′-dimethylethylenediamine] | – | – | pKa: 7.47
49 | O=C(O)CN(CC(=O)O)Cc1ccc(O)cc1 [III-7] | – | – | Pka (Compound III): 11.79
50 | O=C(O)CN(CCCO)CC(=O)O [III-6] | – | – | Pka (Compound III): 9.24
51 | CC(C)CC(N)C(=O)O (stereo not drawn) [Compound I-8] | – | 9.78 | –
52 | CCNCCNCC [N,N′-diethylethylenediamine] | – | – | pKa: 7.77
53 | CCCNCC(=O)O [Compound I-22, CH3CH2CH2—NH—CH2COOH] | – | 10.03 | –
54 | O=C(O)CN(CCP(=O)(O)O)CC(=O)O [III-9] | – | – | Pka (Compound III): 10.46
55 | CC(N)C(=O)O (stereo not drawn) [Compound I-3] | – | 9.87 | pka: 9.87 and 10.26
56 | CN(C)CCN(C)C [II-44] | 10.13 | – | –
57 | NC(CCC(=O)O)C(=O)O (stereo not drawn) [Compound I-16] | – | 9.67 | –
58 | OCCNCCO [III-17] | – | – | Pka (Compound III): 9.00; pka: 9.00
59 | NCCN(CCN)CCN [III-14] | – | – | Pka (Compound III): 9.60
60 | O=C([O-])[O-].[K+].[K+] [K2CO3 (carbonic acid)] | – | – | pka: 10.33
61 | CCN(CC)CC(=O)O [Compound I-25] | – | 10.47 | –
62 | NCCCNCCCN [II-55, H2N—C3H6—NH—C3H6—NH2] | 11.70 and 10.77 | – | –
63 | NC1(C(=O)O)CCCC1 [Compound I-29] | – | 10.31 | –
64 | NC(Cc1ccccc1)C(=O)O (stereo not drawn) [Compound I-9] | – | 9.18 | –
65 | NC(CS)C(=O)O (stereo not drawn) [Compound I-13] | – | 10.28 | –
66 | CCC(N)C(=O)O (stereo not drawn) [Compound I-5] | – | 9.66 | –
67 | O=C(O)CN(CCS)CC(=O)O [III-5] | – | – | Pka (Compound III): 10.79
68 | CN(C)CCN [N,N-dimethylethylenediamine] | – | – | pKa: 6.79
